pIC50: −log10 of the molar value.

One test deals with T1, JAK3 protein (Homo sapiens, UniProt P52333).
T1 construct: purchased Carna Biosciences
T1 sequence (P52333 1-1124): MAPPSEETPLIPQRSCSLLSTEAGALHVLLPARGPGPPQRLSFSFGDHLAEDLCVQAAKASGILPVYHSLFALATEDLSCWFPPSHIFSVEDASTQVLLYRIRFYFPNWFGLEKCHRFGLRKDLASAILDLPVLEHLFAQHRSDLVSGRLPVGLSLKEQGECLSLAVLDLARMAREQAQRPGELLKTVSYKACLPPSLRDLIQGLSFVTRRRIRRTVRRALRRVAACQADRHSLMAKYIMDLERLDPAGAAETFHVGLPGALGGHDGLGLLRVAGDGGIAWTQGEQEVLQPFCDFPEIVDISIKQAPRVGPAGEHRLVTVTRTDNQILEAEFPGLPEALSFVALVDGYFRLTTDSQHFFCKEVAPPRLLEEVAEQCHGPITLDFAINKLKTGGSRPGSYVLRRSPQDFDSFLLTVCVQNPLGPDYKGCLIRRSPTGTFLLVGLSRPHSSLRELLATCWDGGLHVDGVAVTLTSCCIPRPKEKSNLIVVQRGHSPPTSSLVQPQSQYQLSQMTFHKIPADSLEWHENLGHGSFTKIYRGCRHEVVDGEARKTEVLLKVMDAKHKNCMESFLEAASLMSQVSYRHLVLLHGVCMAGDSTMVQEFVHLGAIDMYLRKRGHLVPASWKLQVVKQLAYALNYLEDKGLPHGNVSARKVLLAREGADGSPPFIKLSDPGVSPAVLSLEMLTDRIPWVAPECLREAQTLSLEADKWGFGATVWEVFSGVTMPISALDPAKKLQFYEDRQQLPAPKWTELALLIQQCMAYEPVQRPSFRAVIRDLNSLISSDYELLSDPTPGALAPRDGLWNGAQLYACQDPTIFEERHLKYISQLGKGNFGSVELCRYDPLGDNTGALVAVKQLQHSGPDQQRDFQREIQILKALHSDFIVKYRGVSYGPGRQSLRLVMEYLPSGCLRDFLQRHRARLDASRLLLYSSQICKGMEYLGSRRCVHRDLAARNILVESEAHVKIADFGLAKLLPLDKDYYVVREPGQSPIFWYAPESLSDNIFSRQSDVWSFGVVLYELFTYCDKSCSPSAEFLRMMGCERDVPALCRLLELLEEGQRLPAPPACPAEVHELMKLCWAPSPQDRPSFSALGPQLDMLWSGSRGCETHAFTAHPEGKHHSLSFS
The test is described as follows: In vitro JAK3 kinase activity assay (HTRF kinEASE TK). Conditions: 0.75 μM ATP, 25 minutes, room temperature; read-out: IC50 JAK3 (enzyme activity assay). The class given is biochemical. The procedure:
(§1) Recombinant human JAK1 protein was purchased from Thermo Fisher. JAK2 and JAK3 proteins were purchased from Carna Biosciences. HTRF kinEASE TK kit was purchased from Cisbio Bioassays. BioTek microplate reader Synergy Neo 2 was used to read the plate.
(§2) The test compounds were of 4-fold serial dilution, and the final concentration ranged from 10 μM to 0.04 nM in duplicates for each concentration. The concentration of DMSO in the reaction system was 1%.
The reaction included […] JAK 3 protein kinase, 1 μM TK Substrate-biotin peptide substrate, 0.75 μM ATP, 1× enzymatic buffer, 5 mM MgCl2, and 1 mM DTT. The detection plate was White Proxiplate 384-Plus plate (PerkinElmer), and the mixture (10 μl) was reacted at room temperature for 25 minutes.
(§3) Reaction detection: 10 μl of detection reagent was added to the reaction plate containing final concentration of 0.125 μM of SA-XL665 and 5 μl 1×TK-Antibody. The mixture was incubated overnight at room temperature. The plate was read using Synergy Neo 2.
(§4) Data analysis: 665/620 Ratio was converted into inhibition rate (%) through the following formula: inhibition rate (%)=(Ratiomax−Ratiotest)/(Ratiomax−Ratiomin)×100%. Ratiomax is a positive control without detection compound, Ratiomin is a negative control without detection compound and kinase, Ratiotest is the detection value of each concentration of different compounds. 4 parameter curve fitting was performed to measure the IC50 (nM) values. The details are shown in, Table 1.
For orientation: In TR-FRET formats the signal depends on donor and acceptor labels being close together.

Test [1] has as its target T2, JAK1 (Homo sapiens, UniProt P23458). The experiment in a line: In vitro JAK1 kinase activity assay (HTRF kinEASE TK). In kind it is biochemical. Also noted: purchased Thermo Fisher. The conditions noted are these: 1.1 μM ATP, 60 minutes, room temperature; read-out: IC50 JAK1 (enzyme activity assay). The procedure:
as §1, §2
The reaction included 0.5 ng/μl JAK 1 protein kinase, 1 μM TK Substrate-biotin peptide substrate, 1.1 μM ATP, 1× enzymatic buffer, 5 mM MgCl2, 1 mM MnCl2, 1 mM DTT, and 2.5 nM SEB. The detection plate was White Proxiplate 384-Plus plate (PerkinElmer), and the mixture (10 μl) was reacted at room temperature for 60 minutes.
as §3, §4

The target in test [2] is T3, JAK2 (Homo sapiens, UniProt O60674). The test is described as follows: In vitro JAK2 kinase activity assay (HTRF kinEASE TK). In kind it is biochemical. Also noted: purchased Carna Biosciences. Conditions: 2.7 μM ATP, 25 minutes, room temperature; read-out: IC50 JAK2 (enzyme activity assay). The procedure:
as §1, §2
The reaction included 0.001 ng/μl JAK 2 protein kinase, 1 μM TK Substrate-biotin peptide substrate, 2.7 μM ATP, 1× enzymatic buffer, 5 mM MgCl2, and 1 mM DTT. The detection plate was White Proxiplate 384-Plus plate (PerkinElmer), and the mixture (10 μl) was reacted at room temperature for 25 minutes.
as §3, §4

Test [3] concerns the target T3, JAK2. The experiment in a line: Cellular JAK2 activity assay: EPO-stimulated STAT5 phosphorylation in TF-1 cells. Conditions: EPO (10 U/mL), pSTAT5, read-out: IC50 Cell JAK2. The class given is cell-based. Also noted: endogenous in cells; host or cells: TF-1 cells (ATCC). As to the method: (§5) In TF-1 cells, IL-6 stimulation leads to phosphorylation of STAT3 through JAK1, while EPO stimulants phosphorylation of STAT5 via JAK2.
(§6) TF-1 cells were obtained from American Type Culture Collection (ATCC). TF-1 cells were starved overnight (cell density was 100,000 cells/well at plating) in OptiMEM medium without phenol red containing 0.5% fetal bovine serum (FBS), 0.1 mM non-essential amino acids (NEAA), 1 mM sodium pyruvate at 37° C. The compound was serially diluted in DMSO, added to TF-1 cells and incubated at 37° C. for 20 minutes. The final concentration of DMSO was 0.2%. Then, human recombinant cytokine IL-6 (30 ng/mL) or EPO (10 U/mL) was added to the wells containing TF-1 cells. After the cell plate was incubated for 30 minutes, cells were lysed, and the phosphorylation of STAT3 (IL-6) or STAT5 (EPO) in the cell lysate (pSTAT3/total STAT3 Elisa Kit: CST #7300C/CST #7305C; pSTAT5 and total STAT5 Elisa Kit: Abcam #ab205715) was measured. The IC50 value was determined as the concentration of the compound required to inhibit STAT phosphorylation by 50% relative to the measured DMSO control.

Test [4] addresses T2, JAK1. The experiment in a line: Cellular JAK1 activity assay: IL-6-stimulated STAT3 phosphorylation in TF-1 cells. The class given is cell-based. Also noted: endogenous in cells; host or cells: TF-1 cells (ATCC). The conditions noted are these: IL-6 (30 ng/mL), pSTAT3, read-out: IC50 Cell JAK1. As to the method: as §5, §6

T3 sequence (O60674 whole entry): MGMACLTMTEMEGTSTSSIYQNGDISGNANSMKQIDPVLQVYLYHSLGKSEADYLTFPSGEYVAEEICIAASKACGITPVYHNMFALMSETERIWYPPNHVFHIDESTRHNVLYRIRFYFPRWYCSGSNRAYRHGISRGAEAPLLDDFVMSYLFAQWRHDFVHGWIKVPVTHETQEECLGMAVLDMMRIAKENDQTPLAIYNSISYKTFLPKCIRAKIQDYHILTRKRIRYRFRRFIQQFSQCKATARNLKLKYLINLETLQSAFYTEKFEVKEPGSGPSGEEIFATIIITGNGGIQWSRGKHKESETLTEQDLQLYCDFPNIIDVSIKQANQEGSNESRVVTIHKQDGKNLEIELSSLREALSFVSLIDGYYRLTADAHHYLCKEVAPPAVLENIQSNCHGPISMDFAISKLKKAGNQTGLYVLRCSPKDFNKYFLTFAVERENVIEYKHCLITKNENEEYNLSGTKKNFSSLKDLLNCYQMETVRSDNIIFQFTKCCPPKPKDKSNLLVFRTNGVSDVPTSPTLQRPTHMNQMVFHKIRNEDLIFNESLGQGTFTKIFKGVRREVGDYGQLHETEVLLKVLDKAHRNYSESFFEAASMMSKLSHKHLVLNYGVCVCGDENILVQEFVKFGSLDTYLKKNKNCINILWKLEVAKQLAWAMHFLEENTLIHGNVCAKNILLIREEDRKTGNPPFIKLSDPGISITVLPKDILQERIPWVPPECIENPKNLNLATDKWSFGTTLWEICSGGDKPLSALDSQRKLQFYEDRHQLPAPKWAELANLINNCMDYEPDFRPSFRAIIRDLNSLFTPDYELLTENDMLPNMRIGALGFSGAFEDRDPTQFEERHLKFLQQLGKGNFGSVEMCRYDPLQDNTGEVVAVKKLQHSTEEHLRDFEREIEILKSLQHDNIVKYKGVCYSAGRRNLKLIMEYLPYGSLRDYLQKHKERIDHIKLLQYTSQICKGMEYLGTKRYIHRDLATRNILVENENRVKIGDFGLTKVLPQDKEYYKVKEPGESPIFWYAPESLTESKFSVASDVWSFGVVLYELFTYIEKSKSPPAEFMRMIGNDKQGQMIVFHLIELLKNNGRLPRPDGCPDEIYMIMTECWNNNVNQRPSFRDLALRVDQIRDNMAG
T2 sequence (P23458 whole entry): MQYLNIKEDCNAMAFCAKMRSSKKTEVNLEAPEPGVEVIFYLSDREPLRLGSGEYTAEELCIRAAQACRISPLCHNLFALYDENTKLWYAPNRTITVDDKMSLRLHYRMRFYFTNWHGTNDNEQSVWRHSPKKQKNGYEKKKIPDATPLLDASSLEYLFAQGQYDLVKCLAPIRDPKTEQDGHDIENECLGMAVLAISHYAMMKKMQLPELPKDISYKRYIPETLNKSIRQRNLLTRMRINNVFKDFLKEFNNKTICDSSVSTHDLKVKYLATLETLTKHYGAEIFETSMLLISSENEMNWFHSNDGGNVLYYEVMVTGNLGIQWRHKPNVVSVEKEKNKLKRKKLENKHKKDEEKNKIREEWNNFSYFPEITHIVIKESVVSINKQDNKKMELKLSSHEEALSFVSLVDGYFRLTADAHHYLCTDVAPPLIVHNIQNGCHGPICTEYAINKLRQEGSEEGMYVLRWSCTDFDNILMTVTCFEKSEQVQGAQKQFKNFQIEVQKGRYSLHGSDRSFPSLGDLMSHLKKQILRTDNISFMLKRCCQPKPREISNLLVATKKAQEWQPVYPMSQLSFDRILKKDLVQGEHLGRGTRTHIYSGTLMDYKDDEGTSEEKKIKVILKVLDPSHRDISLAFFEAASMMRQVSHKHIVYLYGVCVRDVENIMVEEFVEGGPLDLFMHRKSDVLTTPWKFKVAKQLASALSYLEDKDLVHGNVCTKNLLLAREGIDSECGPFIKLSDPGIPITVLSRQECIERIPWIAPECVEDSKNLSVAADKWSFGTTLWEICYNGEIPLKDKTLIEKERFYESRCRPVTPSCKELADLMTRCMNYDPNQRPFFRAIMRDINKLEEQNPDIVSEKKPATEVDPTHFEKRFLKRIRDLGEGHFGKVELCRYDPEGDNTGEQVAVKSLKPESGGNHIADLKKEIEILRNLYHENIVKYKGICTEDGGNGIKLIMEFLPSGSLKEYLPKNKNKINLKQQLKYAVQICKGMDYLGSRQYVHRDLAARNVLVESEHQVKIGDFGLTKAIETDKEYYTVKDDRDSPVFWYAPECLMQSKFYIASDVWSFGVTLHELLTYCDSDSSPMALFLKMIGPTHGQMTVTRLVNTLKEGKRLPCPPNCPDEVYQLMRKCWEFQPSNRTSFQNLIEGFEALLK

Take `CCC(C(=O)Nc1nccc2c(-c3nc(Nc4cccc(S(C)(=O)=O)c4F)ncc3C)c[nH]c12)N1CCN(C)CC1` (stereo in doubt) [Example 20, (S)—N-(3-(2-((2-Fluoro-3-(methylsulfonyl)phenyl)amino)-5-methylpyrimidin-4-yl)-1H-pyrrolo[2,3-c]pyridin-7-yl)-2-(4-methylpiperazin-1-yl)butanamide]: the pIC50 on JAK3 protein is 5.00 to 6.30; at JAK1 [1], 7.30 to 8.30; on JAK2 [2], 5.00 to 7.00.
The corresponding values for `COc1nn(C)cc1Nc1nccc(-c2c[nH]c3c(NC(=O)[C@@H](C)N4CCN(C)CC4)nccc23)n1` [Example 1, (R)—N-(3-(2-((3-Methoxy-1-methyl-1H-pyrazol-4-yl)amino)pyrimidin-4-yl)-1H-pyrrolo[2,3-c]pyridin-7-yl)-2-(4-methylpiperazin-1-yl)propionamide] are 5.00 to 6.30, < 7.30 and 5.00 to 7.00.
As for `CCC(C(=O)Nc1nccc2c(-c3nc(Nc4cn(C)nc4OC)ncc3C)c[nH]c12)N1CCN(C)CC1` (stereo not shown) [Example 2, N-(3-(2-((3-Methoxy-1-methyl-1H-pyrazol-4-yl)amino)-5-methylpyrimidin-4-yl)-1H-pyrrolo[2,3-c]pyridin-7-yl)-2-(4-methylpiperazin-1-yl)butanamide], the pIC50 at JAK3 protein was > 6.30; on JAK2 [3], > 5.00; on JAK1 [4], > 7.00; at JAK1 [1] it was 7.30 to 8.30; at JAK2 [2], > 7.00.
Consider `CC[C@@H](C(=O)Nc1nccc2c(-c3nc(Nc4cn(C)nc4OC)ncc3C)c[nH]c12)N1CCN(C)CC1` [Example 3, (S)—N-(3-(2-((3-Methoxy-1-methyl-1H-pyrazol-4-yl)amino)-5-methylpyrimidin-4-yl)-1H-pyrrolo[2,3-c]pyridin-7-yl)-2-(4-methylpiperazin-1-yl)butanamide], for which the pIC50 was > 6.30 at JAK3 protein; > 5.00 on JAK2 [3]; > 7.00 on JAK1 [4]; 7.30 to 8.30 on JAK1 [1]; > 7.00 on JAK2 [2].
For `COc1nn(C)cc1Nc1ncc(C)c(-c2c[nH]c3c(Nc4cn(C)nc4OC)nccc23)n1` [Example 5, N-(3-Methoxy-1-methyl-1H-pyrazol-4-yl)-3-(2-((3-methoxy-1-methyl-1H-pyrazole-4-yl)amino)-5-methylpyrimidin-4-yl)-1H-pyrrolo[2,3-c]pyridin-7-amine], the negative logarithm of the IC50 (pIC50) is > 6.30 on JAK3 protein; < 4.70 on JAK2 [3]; 6.00 to 7.00 on JAK1 [4]; 7.30 to 8.30 at JAK1 [1]; > 7.00 on JAK2 [2].
Turning to `COc1nn(C)cc1Nc1ncc(C)c(-c2c[nH]c3c(NC(=O)C(C(C)C)N4CCN(C)CC4)nccc23)n1` (stereo not shown) [Example 6], the pIC50 at JAK3 protein was > 6.30; on JAK2 [3], > 5.00; on JAK1 [4], 6.00 to 7.00; at JAK1 [1], 7.30 to 8.30; at JAK2 [2], > 7.00.
`COc1nn(C)cc1Nc1ncc(C)c(-c2c[nH]c3c(NC(=O)[C@@H](C)N4CCOCC4)nccc23)n1` [Example 7]: the pIC50 on JAK3 protein is > 6.30; at JAK2 [3], 4.70 to 5.00; on JAK1 [4], 6.00 to 7.00; at JAK1 [1], 7.30 to 8.30; at JAK2 [2] it was > 7.00.
For `COc1nn(C)cc1Nc1ncc(C)c(-c2c[nH]c3c(NC(=O)C(C)(C)N4CCN(C)CC4)nccc23)n1` [Example 11], the pIC50 at JAK3 protein was 5.00 to 6.30; at JAK1 [1], 7.30 to 8.30; at JAK2 [2], 5.00 to 7.00.
In the case of `CCC(C(=O)Nc1nccc2c(-c3nc(Nc4cn(C)nc4OC)ncc3F)c[nH]c12)N1CCN(C)CC1` (stereo not shown) [Example 17, N-(3-(5-Fluoro-2-((3-methoxy-1-methyl-1H-pyrazol-4-yl)amino)pyrimidin-4-yl)-1H-pyrrole[2,3-c]pyridin-7-yl)-2-(4-methylpiperazin-1-yl)butanamide], the pIC50 at JAK3 protein was > 6.30; on JAK1 [1] it was > 8.30; on JAK2 [2] it was 5.00 to 7.00.
The corresponding values for `CCC(C(=O)Nc1nccc2c(-c3nc(Nc4cn(C)nc4OC)ncc3C)c[nH]c12)N1CCN(C2COC2)CC1` (stereo not shown) [Example 18, N-(3-(2-((3-Methoxy-1-methyl-1H-pyrazol-4-yl)amino)-5-methylpyrimidin-4-yl)-1H-pyrrolo[2,3-c]pyridin-7-yl)-2-(4-(oxbutan-3-yl)piperazin-1-yl)butanamide] are > 6.30, > 8.30 and 5.00 to 7.00.
The corresponding values for `CC[C@@H](C(=O)Nc1nccc2c(-c3nc(Nc4cccc(S(C)(=O)=O)c4F)ncc3C)c[nH]c12)N1CC2CCC(C1)N2C` [Example 26, (S)—N-(3-(2-((2-Fluoro-3-(methylsulfonyl)phenyl)amino)-5-methylpyrimidin-4-yl)-1H-pyrrolo[2,3-c]pyridin-7-yl)-2-(8-methyl-3,8-diazabicyclo[3.2.1]octane-3-yl)butanamide] are 5.00 to 6.30, < 7.30 and 5.00 to 7.00.
In the case of `CCC(C(=O)Nc1ncnc2c(-c3nc(Nc4cccc(S(C)(=O)=O)c4F)ncc3C)c[nH]c12)N1CCN(C)CC1` (stereo not shown) [Example 29, N-(7-(2-((2-Fluoro-3-(methylsulfonyl)phenyl)amino)-5-methylpyrimidin-4-yl)-5H-pyrrolo[3,2-d]pyrimidin-4-yl)-2-(4-methylpiperazin-1-yl)butanamide], the pIC50 is 5.00 to 6.30 at JAK3 protein, < 7.30 at JAK1 [1] and 5.00 to 7.00 on JAK2 [2].

By pIC50 is commonly meant −log10 of the IC50, conventionally taken in molar units.

Values taken from patent US12234232B2, “Aromatic heterocyclic compound with kinase inhibitory activity” (SHANGHAI ENNOVABIO PHARMACEUTICALS CO., LTD., priority 2018, dated 2025).
